The values below come from patent EP0988300B1, “BENZO(5,6)CYCLOHEPTA(1,2-B)PYRIDINE DERIVATIVES FOR THE INHIBITION OF FARNESYL PROTEIN TRANSFERASE” (SCHERING CORPORATION, priority 1997, dated 1998).

One test deals with T1, human FPT (Homo sapiens, UniProt P49354+P49356).
T1 construct: made in house; host or cells: Baculovirus/Sf-9 insect cells
In words: FPT pM IC50 Assay (scintillation proximity assay, biotin-CVLS and (1-3H)-FPP substrates). The test is classed as biochemical. The conditions noted are these: 30 pM human FPT, 176 nM FPP, 100 nM biotin-CVLS, 37° C for 1 hour. The method, then:
The enzymatic reaction is performed in 50 mM Tris, 5 µM ZnCl2, 5 mM MgCl2, 0.01 % Triton X-100, 5 mM dithiolthreitol (DTT), pH 7.7 (Buffer R) at 37° C for 1 hour. The purified human FPT (> 95 % pure) was derived from a Baculovirus/Sf-9 expression system. The peptide substrate used was biotin-CVLS (SynPep Corp., Dublin, CA) and (1-^3H)-FPP (21.5 Ci/mmol) was obtained from New England Nuclear Life Science Products (Boston, MA). Compounds were initially dissolved to a final concentration of 4 mg/ml in 100 % DMSO and then to 0.25 µg/ml in 100 % DMSO. Subsequent dilutions of the compound were performed in Buffer R.
The enzymatic reaction is performed in a final volume of 100 µl. Reactions are carried out in a 96 well plate format. […] The reaction is stopped using 150 µl of the Stop Solution consisting of 1.3 mg/ml scintillation beads (strepavidin-coated scintillation proximity beads from. Amersham (Arlington Heights, IL), 250 mM EDTA, pH 8.0 and 0.5 % BSA. The radioactivity is measured after 20 minutes at room temperature.
Compounds are evaluated for their ability to inhibit the reaction by measuring the concentration-dependent percent inhibition of the reaction. […] The enzymatic activity was recorded by measuring the CPM/well using a Wallac 1204 Betaplate BS liquid scintillation counter. […]
On the technique in general: SPA uses beads or plates that emit light when radiolabelled molecules are held near them.

A further test has as its system COS Cell. In words: COS Cell IC50 (Cell-Based Assay), procedures of WO 95/10516. The method, then:
FPT IC50 (inhibition of farnesyl protein transferase, in vitro enzyme assay) was determined following the assay procedures described in WO 95/10516, published April 20, 1995. GGPT IC50 (inhibition of geranylgeranyl protein transferase, in vitro enzyme assay), COS Cell IC50 (Cell-Based Assay), Cell Mat Assay, and anti-tumor activity (in vivo anti-tumor studies) could be determined by the assay procedures described in WO 95/10516. The disclosure of WO 95/10516 is incorporated herein by reference thereto.

The test system of the next test is Human tumor cells. In words: Soft Agar Assay (anchorage-independent growth, colony count after MTT staining). The test is classed as cell-based. The method, then:
Anchorage-independent growth is a characteristic of tumorigenic cell lines. Human tumor cells can be suspended in growth medium containing 0.3% agarose and an indicated concentration of a farnesyl transferase inhibitor. The solution can be overlayed onto growth medium solidified with 0.6% agarose containing the same concentration of farnesyl transferase inhibitor as the top layer. After the top layer is solidified, plates can be incubated for 10-16 days at 37°C under 5% CO2 to allow colony outgrowth. After incubation, the colonies can be stained by overlaying the agar with a solution of MTT (3-[4,5-dimethyl-thiazol-2-yl]-2,5-diphenyltetrazolium bromide, Thiazolyl blue) (1 mg/mL in PBS). Colonies can be counted and the IC50's can be determined.

Compound `NC(=O)N1CCC(CC(=O)N2CCN([C@@H]3c4ccc(Cl)cc4CCc4cc(Br)c[n+]([O-])c43)CC2)CC1` [Example 10] returned an IC50 on human FPT of 410 pM.
For `NC(=O)N1CCC(CC(=O)N2CCC([C@@H]3c4c(Br)cc(Cl)cc4CCc4cc(Br)c[n+]([O-])c43)CC2)CC1` [Example 2], the 50% inhibitory concentration (IC50) is 9 to 85 nM in the test on COS Cell and 25 to 183 nM in the test on Human tumor cells.
Consider `O=C(Cc1cc[n+]([O-])cc1)N1CCN(C2c3ccc(Cl)cc3CCc3cc(Br)c[n+]([O-])c32)CC1` (centres unmarked) [Example 7], for which the half-inhibitory concentration (IC50) was 440 pM against human FPT, 9 to 85 nM in the test with COS Cell and 25 to 183 nM with Human tumor cells.
Take `O=C(Cc1cc[n+]([O-])cc1)N1CCC([C@@H]2c3c(Br)cc(Cl)cc3CCc3cc(Br)c[n+]([O-])c32)CC1` [Example 3]: the IC50 lay in the range of 9 to 85 nM in the test with COS Cell and 25 to 183 nM with Human tumor cells.

A word on the IC50: it is the concentration at which inhibition is half-maximal. Higher therefore signals lower potency.
